Measured values as given in patent US9260439B2, “Dihydropyrrolopyrimidine derivatives” (PFIZER INC., priority 2014, dated 2016).

Biological target: truncated PI3Kα (p110α/iSH2 p85α) (Homo sapiens (Human), UniProt P42336)
Test: PI3KA_Act fluorescence polarization kinase assay (Ki)
Type: biochemical
Conditions: 1 mM ATP
How it was run: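 p110α/iSH2 p85α (0.5 nM) was reacted with 30 μM sonicated PIP2 in 50 mM HEPES pH 7.4, 150 mM NaCl, 5 mM MgCl2, 1 mM DTT and 0.05% CHAPS for 30 min at room temperature, then stopped with EDTA. PIP3 was detected by fluorescence polarization (GST-Grp1 PH domain/TAMRA-PIP3), and Ki came from a Morrison tight-binding fit.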

Chain of truncated PI3Kα (p110α/iSH2 p85α) (P42336 whole entry, the tested form may be a part): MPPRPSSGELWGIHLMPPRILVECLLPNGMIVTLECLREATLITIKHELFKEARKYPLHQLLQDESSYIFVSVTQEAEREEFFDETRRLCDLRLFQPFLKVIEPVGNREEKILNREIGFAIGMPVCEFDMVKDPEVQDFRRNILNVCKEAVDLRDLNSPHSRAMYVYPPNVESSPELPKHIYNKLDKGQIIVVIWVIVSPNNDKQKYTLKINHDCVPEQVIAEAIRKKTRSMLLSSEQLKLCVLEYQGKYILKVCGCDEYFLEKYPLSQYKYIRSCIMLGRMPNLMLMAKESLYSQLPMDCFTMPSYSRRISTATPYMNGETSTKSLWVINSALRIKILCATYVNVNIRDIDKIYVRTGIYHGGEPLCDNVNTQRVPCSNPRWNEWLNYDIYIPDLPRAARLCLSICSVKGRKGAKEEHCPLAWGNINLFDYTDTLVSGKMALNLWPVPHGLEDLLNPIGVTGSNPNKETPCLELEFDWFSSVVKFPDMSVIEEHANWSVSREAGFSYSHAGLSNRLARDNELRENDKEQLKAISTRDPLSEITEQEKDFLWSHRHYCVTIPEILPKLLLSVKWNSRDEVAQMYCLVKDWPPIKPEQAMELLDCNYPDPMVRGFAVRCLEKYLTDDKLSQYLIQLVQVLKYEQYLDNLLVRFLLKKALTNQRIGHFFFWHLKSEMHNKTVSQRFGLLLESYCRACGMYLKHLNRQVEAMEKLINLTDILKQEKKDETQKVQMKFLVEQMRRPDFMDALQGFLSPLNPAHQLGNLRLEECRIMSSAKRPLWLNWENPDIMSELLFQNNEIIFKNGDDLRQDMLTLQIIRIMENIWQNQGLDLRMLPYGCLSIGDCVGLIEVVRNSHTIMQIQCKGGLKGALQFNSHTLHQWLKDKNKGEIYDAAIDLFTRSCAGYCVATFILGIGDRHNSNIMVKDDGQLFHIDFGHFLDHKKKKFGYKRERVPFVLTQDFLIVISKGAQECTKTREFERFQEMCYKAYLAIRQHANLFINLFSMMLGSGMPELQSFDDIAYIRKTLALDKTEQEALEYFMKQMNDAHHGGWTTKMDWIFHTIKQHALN

Ki [nM] | SMILES | PI3KA_Act Ki [nM]
– | C[C@@]1(N2CCc3c(-c4cnc(N)nc4)nc(N4CCOCC4)nc32)CCN(CC(N)=O)C1 [Example 398, 2-{(3R)-3-[4-(2-aminopyrimidin-5-yl)-2-(morpholin-4-yl)-5,6-dihydro-7H-pyrrolo[2,3-d]pyrimidin-7-yl]-3-methylpyrrolidin-1-yl}acetamide] | 0.411
– | C[C@]1(N2CCc3c(-c4cnc(N)nc4)nc(N4CCOCC4)nc32)CCN(CC(N)=O)C1 [Example 399, 2-{(3S)-3-[4-(2-aminopyrimidin-5-yl)-2-(morpholin-4-yl)-5,6-dihydro-7H-pyrrolo[2,3-d]pyrimidin-7-yl]-3-methylpyrrolidin-1-yl}acetamide] | 0.074
– | CNC(=O)CN1CC[C@@](C)(N2CCc3c(-c4cnc(N)nc4)nc(N4CCOCC4)nc32)C1 [Example 400, 2-{(3R)-3-[4-(2-aminopyrimidin-5-yl)-2-(morpholin-4-yl)-5,6-dihydro-7H-pyrrolo[2,3-d]pyrimidin-7-yl]-3-methylpyrrolidin-1-yl}-N-methylacetamide] | 0.781
– | CNC(=O)CN1CC[C@](C)(N2CCc3c(-c4cnc(N)nc4)nc(N4CCOCC4)nc32)C1 [Example 401, 2-{(3S)-3-[4-(2-aminopyrimidin-5-yl)-2-(morpholin-4-yl)-5,6-dihydro-7H-pyrrolo[2,3-d]pyrimidin-7-yl]-3-methylpyrrolidin-1-yl}-N-methylacetamide] | 0.109
– | CN(C)C(=O)CN1CC[C@@](C)(N2CCc3c(-c4cnc(N)nc4)nc(N4CCOCC4)nc32)C1 [Example 402, 2-{(3R)-3-[4-(2-aminopyrimidin-5-yl)-2-(morpholin-4-yl)-5,6-dihydro-7H-pyrrolo[2,3-d]pyrimidin-7-yl]-3-methylpyrrolidin-1-yl}-N,N-dimethylacetamide] | 0.872
– | CN(C)C(=O)CN1CC[C@](C)(N2CCc3c(-c4cnc(N)nc4)nc(N4CCOCC4)nc32)C1 [Example 403, 2-{(3S)-3-[4-(2-aminopyrimidin-5-yl)-2-(morpholin-4-yl)-5,6-dihydro-7H-pyrrolo[2,3-d]pyrimidin-7-yl]-3-methylpyrrolidin-1-yl}-N,N-dimethylacetamide] | 0.053
– | CCOC(=O)N1CC[C@@](C)(N2CCc3c(-c4cnc(N)nc4)nc(N4CCOCC4)nc32)C1 [Example 404, ethyl (3R)-3-[4-(2-aminopyrimidin-5-yl)-2-(morpholin-4-yl)-5,6-dihydro-7H-pyrrolo[2,3-d]pyrimidin-7-yl]-3-methylpyrrolidine-1-carboxylate] | 0.128
– | CCOC(=O)N1CC[C@](C)(N2CCc3c(-c4cnc(N)nc4)nc(N4CCOCC4)nc32)C1 [Example 405, ethyl (3S)-3-[4-(2-aminopyrimidin-5-yl)-2-(morpholin-4-yl)-5,6-dihydro-7H-pyrrolo[2,3-d]pyrimidin-7-yl]-3-methylpyrrolidine-1-carboxylate] | <0.018
– | CC(C)OC(=O)N1CC[C@](C)(N2CCc3c(-c4cnc(N)nc4)nc(N4CCOCC4)nc32)C1 [Example 406, propan-2-yl (3S)-3-[4-(2-aminopyrimidin-5-yl)-2-(morpholin-4-yl)-5,6-dihydro-7H-pyrrolo[2,3-d]pyrimidin-7-yl]-3-methylpyrrolidine-1-carboxylate] | <0.018
– | CC(C)OC(=O)N1CC[C@@](C)(N2CCc3c(-c4cnc(N)nc4)nc(N4CCOCC4)nc32)C1 [Example 407, propan-2-yl (3R)-3-[4-(2-aminopyrimidin-5-yl)-2-(morpholin-4-yl)-5,6-dihydro-7H-pyrrolo[2,3-d]pyrimidin-7-yl]-3-methylpyrrolidine-1-carboxylate] | 0.235
1.08 | CC(C)(C)OC(=O)N1C[C@@H](N2CCc3c(-c4cnc(N)nc4)nc(N4CCOCC4)nc32)[C@@H](F)C1 [Example 408, tert-butyl (3R,4S)-3-[4-(2-aminopyrimidin-5-yl)-2-(morpholin-4-yl)-5,6-dihydro-7H-pyrrolo[2,3-d]pyrimidin-7-yl]-4-fluoropyrrolidine-1-carboxylate] | –
– | CC(C)(C)OC(=O)N1C[C@@H](F)[C@@H](N2CCc3c(-c4cnc(N)nc4)nc(N4CCOCC4)nc32)C1 [Example 409, tert-butyl (3S,4R)-3-[4-(2-aminopyrimidin-5-yl)-2-(morpholin-4-yl)-5,6-dihydro-7H-pyrrolo[2,3-d]pyrimidin-7-yl]-4-fluoropyrrolidine-1-carboxylate] | 0.168
0.262 | CC[C@@]1(N2CCc3c(-c4cnc(N)nc4)nc(N4CCOCC4)nc32)CCN(C(=O)OC(C)(C)C)C1 [Example 410, tert-butyl (3R)-3-[4-(2-aminopyrimidin-5-yl)-2-(morpholin-4-yl)-5,6-dihydro-7H-pyrrolo[2,3-d]pyrimidin-7-yl]-3-ethylpyrrolidine-1-carboxylate] | –
– | CC[C@]1(N2CCc3c(-c4cnc(N)nc4)nc(N4CCOCC4)nc32)CCN(C(=O)OC(C)(C)C)C1 [Example 411, tert-butyl (3S)-3-[4-(2-aminopyrimidin-5-yl)-2-(morpholin-4-yl)-5,6-dihydro-7H-pyrrolo[2,3-d]pyrimidin-7-yl]-3-ethylpyrrolidine-1-carboxylate] | <0.018
– | CC(C)(N)COC(=O)N1CC[C@](C)(N2CCc3c(-c4cnc(N)nc4)nc(N4CCOCC4)nc32)C1.Cl [Example 412, 2-amino-2-methylpropyl (3S)-3-[4-(2-aminopyrimidin-5-yl)-2-(morpholin-4-yl)-5,6-dihydro-7H-pyrrolo[2,3-d]pyrimidin-7-yl]-3-methylpyrrolidine-1-carboxylate hydrochloride] | <0.018
– | C[C@]1(N2CCc3c(-c4cnc(N)nc4)nc(N4CCOCC4)nc32)CCN(C(=O)OCC2CNC2)C1.Cl [Example 413, azetidin-3-ylmethyl (3S)-3-[4-(2-aminopyrimidin-5-yl)-2-(morpholin-4-yl)-5,6-dihydro-7H-pyrrolo[2,3-d]pyrimidin-7-yl]-3-methylpyrrolidine-1-carboxylate hydrochloride] | <0.018
– | CC1(OC(=O)N2CC[C@](C)(N3CCc4c(-c5cnc(N)nc5)nc(N5CCOCC5)nc43)C2)CNC1.Cl [Example 414, 3-methylazetidin-3-yl (3S)-3-[4-(2-aminopyrimidin-5-yl)-2-(morpholin-4-yl)-5,6-dihydro-7H-pyrrolo[2,3-d]pyrimidin-7-yl]-3-methylpyrrolidine-1-carboxylate hydrochloride] | 0.039
– | C[C@]1(N2CCc3c(-c4cnc(N)nc4)nc(N4CCOCC4)nc32)CCN(C(=O)OC2CNC2)C1.Cl [Example 415, azetidin-3-yl (3S)-3-[4-(2-aminopyrimidin-5-yl)-2-(morpholin-4-yl)-5,6-dihydro-7H-pyrrolo[2,3-d]pyrimidin-7-yl]-3-methylpyrrolidine-1-carboxylate hydrochloride] | <0.018
– | CN1CC[C@@H](OC(=O)N2CC[C@](C)(N3CCc4c(-c5cnc(N)nc5)nc(N5CCOCC5)nc43)C2)C1 [Example 416, (3R)-1-methylpyrrolidin-3-yl (3S)-3-[4-(2-aminopyrimidin-5-yl)-2-(morpholin-4-yl)-5,6-dihydro-7H-pyrrolo[2,3-d]pyrimidin-7-yl]-3-methylpyrrolidine-1-carboxylate] | <0.018
– | CN1CC[C@H](OC(=O)N2CC[C@](C)(N3CCc4c(-c5cnc(N)nc5)nc(N5CCOCC5)nc43)C2)C1 [Example 417, (3S)-1-methylpyrrolidin-3-yl (3S)-3-[4-(2-aminopyrimidin-5-yl)-2-(morpholin-4-yl)-5,6-dihydro-7H-pyrrolo[2,3-d]pyrimidin-7-yl]-3-methylpyrrolidine-1-carboxylate] | <0.018
– | CN1CC[C@](C)(N2CCc3c(-c4cnc(N)nc4)nc(N4CCOCC4)nc32)C1 [Example 418, 5-{7-[(3S)-1,3-dimethylpyrrolidin-3-yl]-2-(morpholin-4-yl)-6,7-dihydro-5H-pyrrolo[2,3-d]pyrimidin-4-yl}pyrimidin-2-amine] | 0.320
– | CN1CC[C@@](C)(N2CCc3c(-c4cnc(N)nc4)nc(N4CCOCC4)nc32)C1 [Example 419, 5-{7-[(3R)-1,3-dimethylpyrrolidin-3-yl]-2-(morpholin-4-yl)-6,7-dihydro-5H-pyrrolo[2,3-d]pyrimidin-4-yl}pyrimidin-2-amine] | 1.990
– | CC(C)N1CC[C@](C)(N2CCc3c(-c4cnc(N)nc4)nc(N4CCOCC4)nc32)C1 [Example 420, 5-{7-[(3S)-3-methyl-1-(propan-2-yl)pyrrolidin-3-yl]-2-(morpholin-4-yl)-6,7-dihydro-5H-pyrrolo[2,3-d]pyrimidin-4-yl}pyrimidin-2-amine] | 0.601
– | C[C@]1(N2CCc3c(-c4cnc(N)nc4)nc(N4CCOCC4)nc32)CCN(CC(F)F)C1 [Example 421, 5-{7-[(3S)-1-(2,2-difluoroethyl)-3-methylpyrrolidin-3-yl]-2-(morpholin-4-yl)-6,7-dihydro-5H-pyrrolo[2,3-d]pyrimidin-4-yl}pyrimidin-2-amine] | 0.071
– | CC(C)(O)CN1CC[C@](C)(N2CCc3c(-c4cnc(N)nc4)nc(N4CCOCC4)nc32)C1 [Example 422, 1-{(3S)-3-[4-(2-aminopyrimidin-5-yl)-2-(morpholin-4-yl)-5,6-dihydro-7H-pyrrolo[2,3-d]pyrimidin-7-yl]-3-methylpyrrolidin-1-yl}-2-methylpropan-2-ol] | 0.415
– | COC(=O)C(C)(C)N1CC[C@](C)(N2CCc3c(-c4cnc(N)nc4)nc(N4CCOCC4)nc32)C1 [Example 423, methyl 2-{(3S)-3-[4-(2-aminopyrimidin-5-yl)-2-(morpholin-4-yl)-5,6-dihydro-7H-pyrrolo[2,3-d]pyrimidin-7-yl]-3-methylpyrrolidin-1-yl}-2-methylpropanoate] | 0.445
